The numbers were not newly measured in US12691049B2, “Process for producing hair treatment products by mixing organic C1-C6-alkoxysilanes and alkalizing agents in specific molar ratios” (Henkel AG & Co. KGaA, priority 2021, dated 2026), which cites them from elsewhere.

As for `O=C([O-])c1c(Cl)c(Cl)c(Cl)c(Cl)c1-c1c2cc(Br)c(=O)c(Br)c-2oc2c(Br)c([O-])c(Br)cc12.[Na+].[Na+]` [Acid Red 92, disodium salt of 3,4,5,6-tetrachloro-2-(1,4,5,8-tetrabromo-6-hydroxy-3-oxanthene-9-yl) benzoic acid], the solubility in water result (25° C.) is “greater than 10 g/L”. In the case of `O=S(=O)([O-])c1ccc(N=Nc2c(O)ccc3ccccc23)cc1.[Na+]` [Acid Orange 7, sodium salt of 4-[(2-hydroxy-1-naphthyl)azo]benzene sulphonate], the solubility in water entry (25° C.) is “more than 7 g/L”. Regarding “mixture of the sodium salts of mono and sis-sulfonic acids of 2-(2-quinolyl)-1H-indene-1,3(2H)-dione [Acid Yellow 3]”, the solubility in water (25° C.) was 20 mg/mL. As to `O=C([O-])C1=NN(c2ccc(S(=O)(=O)[O-])cc2)C(=O)C1N=Nc1ccc(S(=O)(=O)[O-])cc1.[Na+].[Na+].[Na+]` (stereo not drawn) [Acid Yellow 23, trisodium salt of 4,5-dihydro-5-oxo-1-(4-sulfophenyl)-4-((4-sulfophenyl)azo)-1H-pyrazole-3-carboxylic acid], the “solubility in water (in words)” value (at 25° C.) was “readily soluble in water”.

For the compound `Nc1cc(S(=O)(=O)[O-])cc2cc(S(=O)(=O)[O-])c(N=Nc3ccccc3)c(O)c12.[Na+].[Na+]` [Acid Red 33, disodium salt of 5-amino-4-hydroxy-3-(phenylazo)-naphthalene-2,7-disulfonate], the solubility in water (25° C.) is 2.5 mg/mL. Turning to `CCN(Cc1cccc(S(=O)(=O)[O-])c1)c1ccc(C(=C2C=CC(=[N+](CC)Cc3cccc(S(=O)(=O)[O-])c3)C=C2)c2ccccc2S(=O)(=O)[O-])cc1.[Na+].[Na+]` [Acid Blue 9], under “25° C.”, the water solubility entry is reported as “more than 20 wt %”.
